# Experimental data: patent publication US8900720B2, “Multi-functional wood preservatives based on a borate/fatty acid combination” (Summerdale, Inc, priority 2010, dated 2014)
# Test system: mold fungi
# Assay: Moldicide assay on treated southern yellow pine stakes (ASTM D4445-91, ASTM D3273-00)
# Type: cell-based
# Details: dip-treated stakes, relative to the water control
# Procedure: All moldicide assays were conducted via ASTM standard D4445-91 (1998) and ASTM D3273-00 (1986).
# Six groups of southern yellow pine stakes (12 replicates) were dip-treated (30 seconds) with treatments 3-1 through 3-6, inoculated with mold spores, incubated, and examined after 12 weeks (Table 3).
# Six groups of southern yellow pine stakes (12 replicates) were dip-treated (30 seconds) with treatments 4-1 through 4-6, inoculated with mold spores, incubated, and examined after 12 weeks.
smiles,measurement,value
"OB(O)O [Boric acid, boric acid]",moldicide activity (in words),no moldicide activity
"O.O.O.O.O=BOB1OB(OB=O)OB2OB([O-])OB([O-])OB(O1)O2.[Na+].[Na+] [DOT, disodium octaborate tetrahydrate]",moldicide activity (in words),no moldicide activity
